The test system of data set [1] is HUVECs. The data set can be described thus: HUVEC proliferation, MTS assay. To be noted: for cell viability reduced: 100 μM, compared to untreated control, 5% FBS and 10 ng/ml bFGF; for inhibition of growth of endothelial cells: 5% FBS and bFGF stimulated. The data set is classed as cell-based, human. The procedure:
Cell proliferation was measured by MTS assay. HUVECs were seeded to gelatin-coated 96-well plate at 1,000 cells/well and incubated in M199 supplement media for 48 h. After 48 h, cells were incubated in serum free M199 medium for 4 h, and then treated with each peptide at indicated concentrations for 30 min. Then, the cells were stimulated with 5% FBS and 10 ng/ml bFGF, and were incubated for 48 or 72 hr. Then, assessment of cell proliferation was done by MTS assay.
A general note: Tetrazolium dyes change colour on reduction, which living cells bring about.

Data set [2] concerns HUVECs. The data set can be described thus: endothelial cell migration assay, modified Boyden chamber, VEGF-induced. As to conditions: for cell migration reduced: VEGF-induced, compared to untreated control; for inhibition of VEGF-induced migration of endothelial cells: 0.1˜100 μM. The data set is classed as cell-based, human. The procedure:
In order to evaluate the effect of the peptides of the present invention on the cell migration, the present inventors conducted cell migration assay using modified Boyden chamber. HUVECs were treated with each peptide for 30 min and then, the cells were allowed to migrate toward VEGF (2˜5 ng/ml). After 5 h, the migrated cells were fixed and stained with hematoxilin and eosin. The stained cells were photographed and counted.

Data set [3] relates to HUVECs. Description: tube formation assay on Matrigel. It counts as cell-based, human. To be noted: 100 μM; for tube formation inhibited/decreased: compared to control group, tube lengths. The procedure:
Chilled Matrigel (150 μl, BD Bioscience) was placed in a pre-chilled 48-well plate and incubated for 30 min at 37° C. HUVECs were treated with each peptide for 30 min and then added to the top of the solidified Matrigel. After 19 h of incubation, the tubes formed were photographed. Images were analyzed using Image J <http://rsb.info.nih.gov/ij/> to determine tube lengths.
That is, the incubated HUVEC with a new serum-free medium was incubated for 2˜4 hr and harvested the cells. After treating the harvested cells at 100 μM with the respective peptides for 30 min, the cells on the hardened Matrigel was incubated for 11˜19 hr, while observing the degree of tube formation, and measured and calculated the lengths of the tubes formed. As a result, it was observed that all the tested peptides, while varying degrees, inhibited tube formation. […] UP3 decreased tube formation by 47%, and TP1 by approximately 37%.

Another data set concerns in vivo angiogenesis. The data set can be described thus: in vivo Matrigel plug assay, hemoglobin by Drabkin's reagent. The arrangement: species or system C57/BL6 mice. To be noted: for plugs with excessive amount of hemoglobin exceeding 500 mg/dl / hemoglobin amount of Matrigel plug, median: 7 days; for hemoglobin amount / in vivo angiogenesis inhibition (words): compared to control group; for hemoglobin amount of Matrigel plug, median: mice, subcutaneous Matrigel with bFGF, VEGF, heparin and peptide. The procedure:
In order to examine the anti-angiogenic activity of the respective peptides in vivo, Matrigel plug assay was performed. 7-week-old C57/BL6 mice (SLC, Japan) were injected subcutaneously in the midventral abdominal region with 0.6 ml of Matrigel containing the bFGF (100 ng/ml), VEGF (100 ng/ml) and heparin (15 unit) with or without peptide. After 7 days, mice were sacrificed by inhalation of CO2 gas and the Matrigel plugs were removed and photographed. To evaluate the formation of vessels, the amount of hemoglobin was quantified using Drabkin's reagent (Sigma). The Matrigel plug was sonicated in RBC lysis buffer (Sigma) and centrifuged at 14000 rpm for 20 min. The supernatant was mixed with Drabkin's reagent and incubated for 3 min. Then, absorbance was measured at 540 nm.

In data set [4] the test system is MDAMB231 breast cancer cells. Description: cancer cell migration, modified Boyden chamber assay, EGF-induced. The data set is classed as cell-based, human. The procedure:
In order to investigate the effect of the respective peptides on cancer cell migration, modified Boyden chamber assay was conducted. MDAMB231 breast cancer cells have EGF receptor and have ability to migrate and metastasize. […] The above results also support that the peptides of the present invention can inhibit cancer cell metastasis.

Data set [5] has as its system A549 lung cancer cell line. It counts as cell-based, human. As to conditions: 48 hr, 5% FBS. How it is done: The Effect of the peptides on cancer cell proliferation was investigated using A549 lung cancer cell line. A549 cells were seeded to 96 well plate at 1,000 cells/well and incubated in DMEM medium containing 10% FBS for 48 h. After treatment of each peptide for 30 min, the proliferation of cancer cells was stimulated by 5% FBS alone. After each incubation time, MTS solution was added to each well and incubated for 2 h. Assessment of proliferation was determined by measurement of absorbance at 490 nm.

Setting [6] is: 100 μM, compared to untreated control.

Entries after “also recorded” stand apart in the source; their conditions may differ. Read-outs that look alike come from different tables or passages of the source. No end group written: not given here.

`CC(C)C[C@H](NC(=O)[C@@H](NC(=O)[C@@H](NC(=O)[C@H](C)NC(=O)[C@H](CO)NC(=O)[C@H](CC(N)=O)NC(=O)[C@H](Cc1c[nH]c2ccccc12)NC(=O)[C@@H]1CCCN1)[C@@H](C)O)C(C)C)C(=O)N[C@@H](CCC(N)=O)C(=O)N[C@@H](CCC(N)=O)C(=O)N[C@H](C(=O)N[C@@H](Cc1ccc(O)cc1)C(=O)N[C@@H](Cc1c[nH]cn1)C(=O)N[C@@H](C)C(=O)N[C@@H](Cc1c[nH]cn1)C(=O)O)[C@@H](C)O` [UP3, PWNSATVLQQTYHAH]: in the data set with HUVECs [1], the cell viability reduced result was “approximately 24%” and the “inhibition of growth of endothelial cells” value is “inhibited growth of endothelial cells”. Besides, in the data set with HUVECs [2] (100 μM), the cell migration reduced came to 28.6%. The “inhibition of VEGF-induced migration of endothelial cells” value with HUVECs [2] is “concentration-dependently inhibited; also recorded: significantly inhibition at concentration of 10 μM or above”. The tube formation inhibited/decreased in the data set with HUVECs [3] worked out at 47%. Further, in the data set with in vivo angiogenesis, the “plugs with excessive amount of hemoglobin exceeding 500 mg/dl” value (shortened to “plugs with excessive amount”) was “showed such plugs with excessive hemoglobin”; the “hemoglobin amount / in vivo angiogenesis inhibition (words)” value is listed as “reduced median value”; the “hemoglobin amount of Matrigel plug, median” value is 4.8 mg/dL. The “hemoglobin amount / in vivo angiogenesis inhibition (words)” value in the data set with in vivo angiogenesis (listed as UP-3) is on record as “decreased amount of hemoglobin”. Further, the “inhibition of migration of breast cancer cell” value in data set [4] was “concentration-dependently inhibited the migration”. The cell migration decreased in data set [4] (setting [6]) is given as 81%.

FGNGSAY [TP1, reference compound]: the “inhibition of migration of endothelial cells” value in the data set on HUVECs [2] (100 μM) is “did not inhibit the migration of endothelial cells”. The tube formation inhibited/decreased result with HUVECs [3] was “approximately 37%”. Also, the “plugs with excessive amount” value in the data set on in vivo angiogenesis is reported as “showed such plugs with excessive hemoglobin”.

For the compound PWCHVLKNRRLTWEY [TP7, PWCHVLKNRRLTWEY], in the data set with HUVECs [1], the cell viability reduced was 65.1% and the “inhibition of growth of endothelial cells” value is “inhibited growth of endothelial cells; also recorded: strong inhibition effect”. In the data set with HUVECs [2] (100 μM), this compound returned a cell migration reduced of 31.4%. Moreover, the “inhibition of VEGF-induced migration of endothelial cells” value in the data set with HUVECs [2] is given as “concentration-dependently inhibited”. The tube formation inhibited/decreased result in the data set with HUVECs [3] was “approximately 93%”. In the data set with in vivo angiogenesis, the “plugs with excessive amount” value is on record as “did not exhibit such plugs”; the “hemoglobin amount / in vivo angiogenesis inhibition (words)” value is recorded as “decreased amount of hemoglobin”; the “hemoglobin amount of Matrigel plug, median” value was found to be 37.3 mg/dL. Besides, the “median value of hemoglobin amount reduced to (vs untreated control)” value in the data set with in vivo angiogenesis (without statistical significance) is given as around 51%. In data set [5], the “inhibition of proliferation of A549 cancer cells (words)” value (shortened to “inhibition of proliferation … (words)”) is on record as “concentration-dependently inhibited proliferation”. In data set [5] (listed as TP-7), the “inhibition of proliferation … (words)” value is listed as “inhibited proliferation of cancer cells concentration-dependently”. In data set [4], the “inhibition of migration of breast cancer cell” value is reported as “concentration-dependently inhibited the migration”. The compound also gave a cell migration decreased in data set [4] (setting [6]) of 66.3%.

In the data set on HUVECs [1], PWCYVQVGLKPLVQE [UP7, PWCYVQVGLKPLVQE] had a cell viability reduced of 69.6%. Further, the “inhibition of growth of endothelial cells” value in the data set on HUVECs [1] was “inhibited growth of endothelial cells; also recorded: strong inhibition effect”. In the data set on HUVECs [2] (100 μM), the cell migration reduced result is reported as “approximately 72%”. The “inhibition of VEGF-induced migration of endothelial cells” value in the data set on HUVECs [2] was “concentration-dependently inhibited”. Moreover, in the data set with HUVECs [3], the “inhibition of tube formation” value is on record as “did not show any inhibitory effect”. For the same compound, in the data set on in vivo angiogenesis, the “plugs with excessive amount” value is “did not exhibit such plugs”. For the same compound, the “hemoglobin amount / in vivo angiogenesis inhibition (words)” value in the data set with in vivo angiogenesis is reported as “remarkably reduced hemoglobin amount”; with in vivo angiogenesis (listed as UP-7), “decreased amount of hemoglobin; also recorded: most potent inhibitory activity against in vivo angiogenesis”. The “hemoglobin amount of Matrigel plug, median” value with in vivo angiogenesis was 16.3 mg/dL. Also, the entries for the “inhibition of proliferation … (words)” value in data set [5] and in data set [5] (listed as UP-7) were “concentration-dependently inhibited proliferation” and “inhibited proliferation of cancer cells concentration-dependently”, respectively. Further, the “inhibition of migration of breast cancer cell” value in data set [4] was “concentration-dependently inhibited the migration; also recorded: most potent inhibitory effect”. The cell migration decreased entry is on record as “approximately 66%” in data set [4] (10 μM) and 88% in data set [4] (setting [6]).

As for PWNSMILIGKVYTAQ [TP3, PWNSMILIGKVYTAQ], the cell viability reduced entry with HUVECs [1] is on record as “approximately 26.7%”. Besides, in the data set with HUVECs [1], the “inhibition of growth of endothelial cells” value is “inhibited growth of endothelial cells”. The compound further gave a cell migration reduced in the data set on HUVECs [2] (0.1 μM) of 15.4%. Further, in the data set with HUVECs [3], the tube formation inhibited/decreased result is “approximately 70%”. Besides, the “plugs with excessive amount” value with in vivo angiogenesis was “showed such plugs with excessive hemoglobin”. Moreover, the “inhibition of proliferation … (words)” value in data set [5] is “concentration-dependently inhibited proliferation”; in data set [5] (listed as TP-3), “inhibited proliferation of cancer cells concentration-dependently”. For the same compound, the “inhibition of migration of breast cancer cell” value in data set [4] is recorded as “concentration-dependently inhibited the migration”. Further, the cell migration decreased in data set [4] (1 μM, compared to untreated control) is around 30%; in data set [4] (setting [6]), around 69.4%.

Values taken from patent US9121015B2, “Peptide having a vascularization-suppressing activity and a use therefor” (CATHOLIC UNIVERSITY INDUSTRY ACADEMIC COOPERATION FOUNDATION, priority 2010, dated 2015).
